Measured values taken from patent publication EP1247803A2, “Indolinone compounds suitable for modulation of protein kinases” (Sugen, Inc., priority 1996, dated 1998).

Tests used:
EGFR = molecular target: T1, EGFR (Homo sapiens, UniProt P00533); test: EGFR ELISA assay (in vitro kinase activity, EGFR captured from A431 cell lysate); type: biochemical; parameters: concentration or dose not given beside the values
T1 construct: Add 7 ug A431 cell lysate per well (EGFR source); endogenous in cells; host or cells: A431
Excerpt: To provide a consistent method for measuring the in vitro kinase activity of the EGFR in an Enzyme-linked immunosorbent assay (Elisa).
Scope. The following protocol describes the procedures used to analyze protein tyrosine kinase activity on the EGFR in an Elisa. The procedure also describes the protocol for the initial screening of drugs for inhibition or activation of protein tyrosine kinase activity.
Reagents and Supplies. • 1. […] 05-101 monoclonal anti-EGFR antibody (commercially available from UB1) -80° C, 1 ml aliquots • 3. […] TBST Buffer Formulation: 50 mM Tris pH 7.2 150 mM NaCl 0.1% Triton X-100 • 5. Blocking Buffer Formulation: 5% Carnation Instant Milk in PBS • 6. A431 cell lysate A431 cells are available from a variety of commercial sources and may be used lysed using conventional methods known to those skilled in the art or as described for lysis of the 3T3 cells in the EGF cellular assay described herein. -80° C, 1 ml aliquots • 7. TBS Buffer Formulation: 50 mM Tris pH 7.2 150 mM NaCl • 8. […] NUNC 96-well V bottom polypropylene plates Applied Scientific Catalog # AS-72092 • 11. EDTA Formulation: 200 mM EDTA pH 8.0 • 12. […] Goat anti-rabbit IgG peroxidase conjugate Biosource Catalog # ALI0404 • 14. ABTS Solution Formulation: 100 mM Citric Acid (anhydrous) 250 mM Na2HPO4 pH 4.0 0.5 mg/ml ABTS (2,2'-azino-bis(3-ethylbenzthiazoline-6-sulfonic acid) (Sigma Catalog # A-1888) Keep solution in dark at 4 C until ready to use • 15. Hydrogen peroxide 30% solution Fisher Catalog # H325 Store in the dark at 4 C until ready to use • 16. ABTS/H2O2 Formulation: 15 mls ABTS solution 2 ul H2O2 Prepare 5 minutes before use and room temperature • 17. 0.2 M HCL stock in H2O Procedure. • 1. Coat Corning 96-well elisa plates with 0.5 ug per well 05-101 antibody. Bring final volume to 100 ul per well with PBS. Coat plates overnight at 4° C. • 2. Remove unbound 05-101 from wells by inverting plate to remove liquid. Wash 1x with distilled H2O by filling wells Pat the plate on a paper towel to remove excess liquid. • 3. Block plates with 5% milk in PBS. 150 ul per well. Incubate plate 30 minutes while shaking on a microtiter plate shaker. • 4. Wash plate 3x with dionized water, then once with TBST • 5. Add 7 ug A431 cell lysate per well (EGFR source). Add PBS to final volume of 100 ul per well Incubate 30 minutes while shaking. • 6. Wash as described in step 4. • 7. At this point, drugs or extracts are added to the wells. Dilute drugs/extracts 1:100 (unless specified otherwise) in TBS + 10% DMSO in 96-well polypropylene plates. Add 120 ul TBS to ELISA plate containing captured EGFR. Add 13.5 ul diluted drugs/extracts to ELISA plate. […] Incubate plate 30 minutes while shaking. • 8. […] (150 ul final volume in well with 3 uM ATP/5 mM MnCl2 final concentration in well.) Incubate 5 minutes while shaking vigorously. *NOTE: It is critical that ATP/MnCl2 phosphorylates the receptor for 5 minutes only. It is best to add the ATP/MnCl2 with an 12 channel pipettor 1 row at a time leaving 20 seconds between each row so that the reaction may be stopped with EDTA exactly 5 minutes later (this depends on the number of plates being phosphorylated in one batch). Shake between each addition. • 9. After 5 minutes, to stop reaction, add 16.5 ul of 200 mM EDTA pH 8.0 for 20 mM final in well, shaking continuously between each addition. This is done using the same timing method as above. After last row has received EDTA, shake plate an additional minute. • 10. Wash 4x with deionized water, twice with TBST. • 11. Add rabbit polyclonal anti-phosphotyrosine serum. Dilute 1:3000 in TBST. Add 100 ul per well. Incubate 30-45 minutes while shaking. • 12. Wash as described above in step 4. • 13. Add BioSource anti-rabbit peroxidase conjugate antibody. Dilute 1:2000 in TBST. Add 100 ul per well. Incubate 30 minutes while shaking. • 14. Wash as described in step 4. • 15. Add 100 ul of ABTS/H2O2 solution to well. Incubate 5 to 10 minutes while shaking. Remove bubbles • 16. […]

MET = MET biochemical kinase assay; parameters: species or system human; concentration or dose not given beside the values
Excerpt: A met biochemical kinase assay may be performed for met generally as described above for other kinases by substituting that or the other kinases. In particular, ELISA plates are coated with goat anti-rabbit Fc antibodies, which are used to capture commercially available (from Santa Cruz Biotechnology) rabbit polyclonal antibodies to the cytoplasmic domain of human MET. […] The chimeric receptors, or MET, from these lysates are captured on the antibody coated plates. After washing away extraneous proteins, test compounds are added and an in vitro kinase assay is performed by addition of an appropriate kinase buffer (containing ATP, divalent metal ions, etc.). Incorporation of phosphate into the captured receptors is detected with an anti-phosphotyrosine antibody conjugate with horse radish peroxidase using TMB as a substrate for colorimetric detection.

T1 sequence (P00533 25-1210): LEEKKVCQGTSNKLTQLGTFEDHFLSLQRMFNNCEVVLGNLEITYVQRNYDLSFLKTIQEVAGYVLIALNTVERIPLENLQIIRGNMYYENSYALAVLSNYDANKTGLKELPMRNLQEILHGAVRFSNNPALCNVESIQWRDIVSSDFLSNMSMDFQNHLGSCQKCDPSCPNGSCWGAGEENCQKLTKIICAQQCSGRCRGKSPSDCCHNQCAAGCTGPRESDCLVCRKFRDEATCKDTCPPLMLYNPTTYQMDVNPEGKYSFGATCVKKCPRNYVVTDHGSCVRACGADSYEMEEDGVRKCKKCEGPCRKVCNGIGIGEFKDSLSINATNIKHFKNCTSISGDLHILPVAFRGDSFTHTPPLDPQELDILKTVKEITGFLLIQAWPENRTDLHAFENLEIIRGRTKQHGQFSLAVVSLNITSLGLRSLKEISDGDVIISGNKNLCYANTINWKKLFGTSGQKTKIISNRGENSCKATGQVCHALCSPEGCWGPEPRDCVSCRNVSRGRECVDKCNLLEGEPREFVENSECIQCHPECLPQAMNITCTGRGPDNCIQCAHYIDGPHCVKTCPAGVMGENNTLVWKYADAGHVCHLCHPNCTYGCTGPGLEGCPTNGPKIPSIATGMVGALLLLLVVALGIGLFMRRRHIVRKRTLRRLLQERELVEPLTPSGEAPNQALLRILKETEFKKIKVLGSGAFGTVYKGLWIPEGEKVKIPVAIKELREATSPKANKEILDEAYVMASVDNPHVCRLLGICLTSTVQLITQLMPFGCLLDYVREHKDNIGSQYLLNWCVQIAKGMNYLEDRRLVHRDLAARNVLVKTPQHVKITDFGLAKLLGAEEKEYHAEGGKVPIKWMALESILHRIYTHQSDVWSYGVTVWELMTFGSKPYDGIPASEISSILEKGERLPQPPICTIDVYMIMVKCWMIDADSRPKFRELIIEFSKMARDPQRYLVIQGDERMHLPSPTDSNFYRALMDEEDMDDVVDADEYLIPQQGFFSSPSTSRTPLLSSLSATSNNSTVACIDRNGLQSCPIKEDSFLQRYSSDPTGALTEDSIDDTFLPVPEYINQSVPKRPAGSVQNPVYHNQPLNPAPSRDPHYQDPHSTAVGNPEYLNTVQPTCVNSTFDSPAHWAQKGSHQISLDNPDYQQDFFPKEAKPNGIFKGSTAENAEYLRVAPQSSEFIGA

Compound	Biochem EGFR %Inhibition (EGFR) [%]	Met Kinase % Inhibition (MET) [%]
Cc1c(Br)ccc2c1C(=Cc1ccco1)C(=O)N2 [10718/C10]	-18.7	4.4
Cc1c(Br)ccc2c1C(=Cc1ccc([N+](=O)[O-])o1)C(=O)N2 [10718/C11]	-0.2	10.1
CCOC(=O)c1c(C)[nH]c(C=C2C(=O)Nc3ccc(S(=O)(=O)NC)cc32)c1C [10718/D02]	14.4	32.0
CNS(=O)(=O)c1ccc2c(c1)C(=Cc1cc(OC)cc(Br)c1O)C(=O)N2 [10718/D03]	61.9	92.9
CNS(=O)(=O)c1ccc2c(c1)C(=Cc1ccc3ccccc3c1O)C(=O)N2 [10718/D04]	52.0	92.9
CCOC(=O)CCc1c(C(=O)OCC)[nH]c(C=C2C(=O)Nc3ccc(S(=O)(=O)NC)cc32)c1CC(=O)OCC [10718/D05]	2.8	10.6
CCOC(=O)c1cc(C=C2C(=O)Nc3ccc(S(=O)(=O)NC)cc32)oc1C [10718/D06]	20.0	11.1
C=C(C)C1CC=C(C=C2C(=O)Nc3ccc(S(=O)(=O)NC)cc32)CC1 (centres unmarked) [10731/D04]	15.8	24.5
CNS(=O)(=O)c1ccc2c(c1)C(=Cc1coc3ccc(C(C)C)cc3c1=O)C(=O)N2 [10731/D05]	53.9	92.7
CNS(=O)(=O)c1ccc2c(c1)C(=Cc1coc3ccc(C)cc3c1=O)C(=O)N2 [10731/D06]	23.2	59.7
CNS(=O)(=O)c1ccc2c(c1)C(=Cc1coc3ccc([N+](=O)[O-])cc3c1=O)C(=O)N2 [10731/D07]	25.9	45.9
CNS(=O)(=O)c1ccc2c(c1)C(=Cc1c[nH]c(=O)[nH]c1=O)C(=O)N2 [10731/D08]	16.8	44.2
CNS(=O)(=O)c1ccc2c(c1)C(=Cc1c[nH]c3ccc(OC)cc13)C(=O)N2 [10731/D09]	12.6	23.9
CNS(=O)(=O)c1ccc2c(c1)C(=C1C(=O)N(C)c3ccccc31)C(=O)N2 [10731/D10]	15.8	21.1
CCn1c2ccccc2c2cc(C=C3C(=O)Nc4ccc(S(=O)(=O)Nc5ccc(C(F)(F)F)cc5)cc43)ccc21 [10731/E02]	7.9	49.1
Cc1cc2occ(C=C3C(=O)Nc4ccc(S(=O)(=O)Nc5ccc(C(F)(F)F)cc5)cc43)c(=O)c2cc1C [10731/E03]	10.4	20.7
C=C(C)C1CC=C(C=C2C(=O)Nc3ccc(S(=O)(=O)Nc4ccc(C(F)(F)F)cc4)cc32)CC1 (centres unmarked) [10731/E04]	13.6	55.6
CC(C)c1ccc2occ(C=C3C(=O)Nc4ccc(S(=O)(=O)Nc5ccc(C(F)(F)F)cc5)cc43)c(=O)c2c1 [10731/E05]	17.7	82.2
Cc1ccc2occ(C=C3C(=O)Nc4ccc(S(=O)(=O)Nc5ccc(C(F)(F)F)cc5)cc43)c(=O)c2c1 [10731/E06]	10.4	37.7

Compound	Biochem EGFR %Inhibition (EGFR) [%]	Met Kinase % Inhibition (MET) [%]
O=C1Nc2ccc(S(=O)(=O)Nc3ccc(C(F)(F)F)cc3)cc2C1=Cc1coc2ccc([N+](=O)[O-])cc2c1=O [10731/E07]	38.4	45.9
O=C1Nc2ccc(S(=O)(=O)Nc3ccc(C(F)(F)F)cc3)cc2C1=Cc1c[nH]c(=O)[nH]c1=O [10731/E08]	40.1	59.0
COc1ccc2[nH]cc(C=C3C(=O)Nc4ccc(S(=O)(=O)Nc5ccc(C(F)(F)F)cc5)cc43)c2c1 [10731/E09]	17.2	27.0
CN1C(=O)C(=C2C(=O)Nc3ccc(S(=O)(=O)Nc4ccc(C(F)(F)F)cc4)cc32)c2ccccc21 [10731/E10]	25.1	35.5
CCn1c2ccccc2c2cc(C=C3C(=O)Nc4ccc(S(=O)(=O)N5CCOCC5)cc43)ccc21 [10731/F02]	17.7	47.5
Cc1cc2occ(C=C3C(=O)Nc4ccc(S(=O)(=O)N5CCOCC5)cc43)c(=O)c2cc1C [10731/F03]	8.4	40.6
C=C(C)C1CC=C(C=C2C(=O)Nc3ccc(S(=O)(=O)N4CCOCC4)cc32)CC1 (centres unmarked) [10731/F04]	5.0	17.0
CC(C)c1ccc2occ(C=C3C(=O)Nc4ccc(S(=O)(=O)N5CCOCC5)cc43)c(=O)c2c1 [10731/F05]	19.5	84.4
Cc1ccc2occ(C=C3C(=O)Nc4ccc(S(=O)(=O)N5CCOCC5)cc43)c(=O)c2c1 [10731/F06]	7.2	20.9
O=C1Nc2ccc(S(=O)(=O)N3CCOCC3)cc2C1=Cc1coc2ccc([N+](=O)[O-])cc2c1=O [10731/F07]	37.7	34.7
O=C1Nc2ccc(S(=O)(=O)N3CCOCC3)cc2C1=Cc1c[nH]c(=O)[nH]c1=O [10731/F08]	7.1	23.5
COc1ccc2[nH]cc(C=C3C(=O)Nc4ccc(S(=O)(=O)N5CCOCC5)cc43)c2c1 [10731/F09]	-0.7	20.5
CN1C(=O)C(=C2C(=O)Nc3ccc(S(=O)(=O)N4CCOCC4)cc32)c2ccccc21 [10731/F10]	7.9	48.1
CCn1c2ccccc2c2cc(C=C3C(=O)Nc4ccc(CCCl)cc43)ccc21 [10731/G02]	4.7	15.2
Cc1cc2occ(C=C3C(=O)Nc4ccc(CCCl)cc43)c(=O)c2cc1C [10731/G03]	7.7	33.7
C=C(C)C1CC=C(C=C2C(=O)Nc3ccc(CCCl)cc32)CC1 (centres unmarked) [10731/G04]	7.1	23.3
CC(C)c1ccc2occ(C=C3C(=O)Nc4ccc(CCCl)cc43)c(=O)c2c1 [10731/G05]	18.5	72.4
Cc1ccc2occ(C=C3C(=O)Nc4ccc(CCCl)cc43)c(=O)c2c1 [10731/G06]	2.3	33.3
